SMILES strings stand for the structures. Activity calls are given as the source filed them. Where only a bound is given, the exact number is not on record here.

The text below walks through data of ChEMBL document CHEMBL1201862, “PubChem BioAssay data set” (2004).

The subject of one test is HEK293. Briefly: HEK293T cell cytotoxicity, dose response, cytotoxicity control, ATP luminescence, cherry-pick samples (AID 687005).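 Note: cells exposed to compound for 48 hours.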 Type of test: functional, cell-based. The conditions noted are these: Homo sapiens.
Test [1] can be described thus: HEK293 Cytotoxicity Assay Measured in Cell-Based System Using Plate Reader - 7071-01_Inhibitor_Dose_CherryPick_Activity_Set2. Type of test: functional.
Test [2] deals with Heat shock protein HSP 90-alpha (Homo sapiens, UniProt P07900). The experiment in a line: Luminescence-based dose response biochemical high throughput screening assay for inhibitors of the Heat Shock Protein 90 (HSP90). [Related pubchem assays: 1831 (Summary AID.), 1846 (Confirmation screen.), 1789 (Primary screen.)].
For test [3], the system named is A-375. The experiment in a line: MITF: Counter assay: A375 proliferation Measured in Cell-Based System Using Plate Reader - 2084-03_Inhibitor_Dose_DryPowder_Activity. [Related pubchem assays (depositor defined):AID488944]. Type of test: functional. The settings on record: Homo sapiens.
Test [4] has as its system A-375. The experiment in a line: A375 melanoma cell viability reduction, dose response, counter-screen for MITF modulator project, cherry-pick samples, set 2 (AID 540335). Type of test: functional, cell-based. The settings on record: Homo sapiens. On the technique in general: Counterscreens check selectivity or assay interference.
Test [5] can be described thus: antifungal activity, alamar blue, dry powder, counter-screen for C. neoformans cell wall antifungals, dose response (AID 743128). Type of test: functional, organism-based. Background: Resazurin is reduced to fluorescent resorufin, in cell work by metabolically active cells.
In test [6] the target is Metabotropic glutamate receptor 5 (Rattus norvegicus, UniProt P31424). The experiment in a line: Identification of a glycine sulfonamide based non-MPEP site positive allosteric potentiator (PAM) of mGlu5 (calcium_assay). Type of test: functional.
Another test has as its target Paired box protein Pax-8 (Homo sapiens, UniProt Q06710). The experiment in a line: inhibitors of PAX8-driven TPO luciferase reporter, dose response, RMG-I cells, cherry-pick (AID 687027).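 Note: luciferase reporter driven by Pax8 target thyroperoxidase promoter measured by SteadyGlo luminescence.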 Type of test: functional, cell-based.
Test [7] is described as follows: PAX2 cell-based inhibition, dose response, selectivity assay for PAX8 inhibitor project, plate reader, dry powder samples (AID 743048).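 Note: HEK293 cells carrying a WT1 promoter luciferase reporter driven by expressed Pax2; potency is for inhibition of Pax2 driven reporter signal.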 Type of test: functional.
The nature of test [8]: cytotoxicity in COV362 ovarian cancer cells, dose response, cytotoxicity control for PAX8 inhibitor project, cell-based, plate reader, dry powder, SA12 (AID 743144). Type of test: functional.
A short description of test [9]: IOSE-T80 ovarian epithelial cell cytotoxicity, dose response, cytotoxicity control for PAX8 inhibitor project, plate reader, dry powder samples (AID 743045). Type of test: functional, cell-based.
Test [10] can be described thus: A2780 ovarian cancer cell cytotoxicity, dose response, cytotoxicity control, plate reader, dry powder samples (AID 743046). Type of test: functional, cell-based.
Test [11] is described as follows: NIH:OVCAR-3 ovarian cancer cell cytotoxicity, dose response, PAX8 inhibitor project, plate reader, dry powder samples (AID 743044). Type of test: functional, cell-based.
Test [12] in a line: PAX5 activity inhibitors, dose response, selectivity assay for PAX8 inhibitor project, cell-based, plate reader, dry powder samples (AID 743047).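 Note: HEK293 cells carrying a Pax5 driven CD19 promoter luciferase reporter; potency of inhibitors that lower reporter luminescence.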 Type of test: functional.
Test [13] can be described thus: IGROV1 ovarian cancer cell cytotoxicity, dose response, PAX8 inhibitor project, plate reader, dry powder samples (AID 743043). Type of test: functional, cell-based. The settings on record: IGROV-1.
The nature of test [14]: cytotoxicity in OVCAR4 cells, dose response, cytotoxicity control for PAX8 inhibitor project, cell-based, plate reader, dry powder, SA11 (AID 743150). The settings on record: OVCAR-4. Type of test: functional.
Test [15] in a line: cytotoxicity in COV434 cells, dose response, cytotoxicity control for PAX8 inhibitor project, cell-based, plate reader, dry powder, SA7 (AID 743145). Type of test: functional.
Test [16] is described as follows: cytotoxicity in OV-90 ovarian cancer cells, dose response, PAX8 inhibitor project, cell-based, plate reader, dry powder, SA8 (AID 743149). Type of test: functional.
Test [17] is described as follows: cytotoxicity in OVCAR8 ovarian cancer cells, dose response, PAX8 project, cell-based, plate reader, dry powder samples (AID 743197). Type of test: functional. The settings on record: OVCAR-8.
Test [18] is described as follows: cytotoxicity dependent on PAX8, dose response, cell-based, plate reader, dry powder (AID 743049). Type of test: functional.
Test [19] addresses Metabotropic glutamate receptor 7 (Homo sapiens, UniProt Q14831). Briefly: mGlu7 positive allosteric modulators, dose response, cell-based, calcium mobilization, Galpha15 (AID 743384). Type of test: functional.
Test [20] addresses E3 ubiquitin-protein ligase Mdm2 (Homo sapiens, UniProt Q00987). Briefly: enhancers of MDM2-luciferase reporter signal, concentration-effect titration, project on inhibitors of MDM2 ubiquitin ligase, cellular assay, luminescent readout, 384-well plate format (AID 1394).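 Note: MDM2 E3 inhibitors raise luminescence so EC50 is for signal enhancement.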 Type of test: functional. A general note: In a reporter assay the amount or activity of a reporter protein is the signal.

Test [21] in a line: Luminescence-based cell-based high throughput dose response assay to identify activators of the DAF-12 from the parasite S. stercoralis (ssDAF-12). Type of test: functional.
In test [22] the target is T1, Oxysterols receptor LXR-beta (Homo sapiens, UniProt P55055).
T1 sequence (P55055 whole entry): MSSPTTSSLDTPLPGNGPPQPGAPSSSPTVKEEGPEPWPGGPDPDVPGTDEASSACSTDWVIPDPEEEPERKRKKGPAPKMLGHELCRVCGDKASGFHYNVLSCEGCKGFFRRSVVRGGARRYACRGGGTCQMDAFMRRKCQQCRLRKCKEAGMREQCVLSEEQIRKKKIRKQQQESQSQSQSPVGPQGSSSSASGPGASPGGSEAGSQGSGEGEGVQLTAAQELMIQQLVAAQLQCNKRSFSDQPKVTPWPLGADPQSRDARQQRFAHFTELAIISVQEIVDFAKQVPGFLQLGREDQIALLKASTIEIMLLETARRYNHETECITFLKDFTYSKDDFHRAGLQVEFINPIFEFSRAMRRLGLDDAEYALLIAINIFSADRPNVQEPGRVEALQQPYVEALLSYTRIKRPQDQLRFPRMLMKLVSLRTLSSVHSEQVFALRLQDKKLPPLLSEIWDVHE
Briefly: LXR agonists, Gal4 luciferase reporter, dose response, counter-screen for ssDAF-12 agonist project, cell-based, luminescence, HEK293, S. stercoralis campaign (AID 720737). Type of test: functional. The conditions noted are these: read-out: IC50 (the source's name).

Test [23] addresses T1, Oxysterols receptor LXR-beta. Type of test: functional, cell-based.
Test [24] is described as follows: Vero cell cytotoxicity, dose response, cytotoxicity control for Vif-APOBEC3G degradation inhibitor project, Vero cells (AID 1117358). The conditions noted are these: Human immunodeficiency virus 1, Vero. Type of test: functional.
Test [25] is described as follows: A Cell-Based Confirmatory Screen for Compounds that Inhibit VEEV, TC-83 (5). Type of test: functional.
Test [26] can be described thus: A Cell-Based Confirmatory Screen for Compounds that Inhibit VEEV, TC-83 (3). Type of test: functional.
A short description of test [27]: A Cell-Based Confirmatory Screen for Compounds that Inhibit VEEV TC-83 (4). Type of test: functional.

Sequence of E3 ubiquitin-protein ligase Mdm2 (Q00987 whole entry): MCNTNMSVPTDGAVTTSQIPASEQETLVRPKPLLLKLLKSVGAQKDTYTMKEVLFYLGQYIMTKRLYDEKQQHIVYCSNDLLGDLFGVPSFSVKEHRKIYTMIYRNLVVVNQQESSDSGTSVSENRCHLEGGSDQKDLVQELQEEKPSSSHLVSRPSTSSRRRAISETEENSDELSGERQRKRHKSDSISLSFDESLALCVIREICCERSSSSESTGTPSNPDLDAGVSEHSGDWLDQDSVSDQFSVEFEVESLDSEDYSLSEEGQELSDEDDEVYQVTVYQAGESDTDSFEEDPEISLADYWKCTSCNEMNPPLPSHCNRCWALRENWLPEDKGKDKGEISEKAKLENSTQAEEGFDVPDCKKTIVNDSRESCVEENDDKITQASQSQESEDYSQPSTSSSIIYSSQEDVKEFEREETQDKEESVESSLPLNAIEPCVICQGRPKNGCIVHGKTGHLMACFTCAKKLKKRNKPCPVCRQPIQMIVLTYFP
Sequence of Metabotropic glutamate receptor 7 (Q14831 whole entry): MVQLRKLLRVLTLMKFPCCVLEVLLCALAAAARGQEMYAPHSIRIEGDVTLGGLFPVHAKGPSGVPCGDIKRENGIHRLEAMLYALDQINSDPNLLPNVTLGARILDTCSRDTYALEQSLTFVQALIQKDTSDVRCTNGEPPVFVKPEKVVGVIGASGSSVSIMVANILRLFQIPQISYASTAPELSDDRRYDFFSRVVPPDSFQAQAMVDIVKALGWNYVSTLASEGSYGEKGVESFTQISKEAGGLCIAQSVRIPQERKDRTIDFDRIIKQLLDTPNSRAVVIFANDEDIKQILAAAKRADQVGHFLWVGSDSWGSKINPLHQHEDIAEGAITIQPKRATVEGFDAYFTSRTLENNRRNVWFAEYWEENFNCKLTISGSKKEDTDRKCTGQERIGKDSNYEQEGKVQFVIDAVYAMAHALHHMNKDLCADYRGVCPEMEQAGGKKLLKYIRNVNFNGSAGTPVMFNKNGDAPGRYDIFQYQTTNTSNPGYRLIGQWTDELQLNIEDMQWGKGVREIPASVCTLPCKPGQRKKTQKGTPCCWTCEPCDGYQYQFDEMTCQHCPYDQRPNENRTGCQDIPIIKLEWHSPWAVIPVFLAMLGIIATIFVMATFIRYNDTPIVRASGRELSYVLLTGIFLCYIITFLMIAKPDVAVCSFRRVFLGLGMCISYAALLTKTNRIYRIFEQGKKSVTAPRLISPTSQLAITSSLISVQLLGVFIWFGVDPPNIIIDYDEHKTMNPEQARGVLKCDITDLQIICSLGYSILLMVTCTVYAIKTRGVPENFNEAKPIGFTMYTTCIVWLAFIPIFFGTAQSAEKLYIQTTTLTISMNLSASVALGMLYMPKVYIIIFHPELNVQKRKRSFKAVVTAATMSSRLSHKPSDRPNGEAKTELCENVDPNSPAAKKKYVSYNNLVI
Sequence of Paired box protein Pax-8 (Q06710 whole entry): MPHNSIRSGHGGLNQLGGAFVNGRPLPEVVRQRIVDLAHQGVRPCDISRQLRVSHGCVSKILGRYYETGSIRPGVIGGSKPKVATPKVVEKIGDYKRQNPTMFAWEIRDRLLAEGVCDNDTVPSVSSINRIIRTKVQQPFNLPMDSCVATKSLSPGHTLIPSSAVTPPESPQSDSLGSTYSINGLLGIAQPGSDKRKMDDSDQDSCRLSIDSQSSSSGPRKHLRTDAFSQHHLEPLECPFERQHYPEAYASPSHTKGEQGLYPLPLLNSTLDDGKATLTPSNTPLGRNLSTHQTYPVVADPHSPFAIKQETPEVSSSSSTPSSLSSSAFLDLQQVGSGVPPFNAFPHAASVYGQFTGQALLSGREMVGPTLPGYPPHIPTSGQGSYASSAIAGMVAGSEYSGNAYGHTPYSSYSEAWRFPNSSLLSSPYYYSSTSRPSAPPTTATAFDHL
Sequence of Metabotropic glutamate receptor 5 (P31424 whole entry): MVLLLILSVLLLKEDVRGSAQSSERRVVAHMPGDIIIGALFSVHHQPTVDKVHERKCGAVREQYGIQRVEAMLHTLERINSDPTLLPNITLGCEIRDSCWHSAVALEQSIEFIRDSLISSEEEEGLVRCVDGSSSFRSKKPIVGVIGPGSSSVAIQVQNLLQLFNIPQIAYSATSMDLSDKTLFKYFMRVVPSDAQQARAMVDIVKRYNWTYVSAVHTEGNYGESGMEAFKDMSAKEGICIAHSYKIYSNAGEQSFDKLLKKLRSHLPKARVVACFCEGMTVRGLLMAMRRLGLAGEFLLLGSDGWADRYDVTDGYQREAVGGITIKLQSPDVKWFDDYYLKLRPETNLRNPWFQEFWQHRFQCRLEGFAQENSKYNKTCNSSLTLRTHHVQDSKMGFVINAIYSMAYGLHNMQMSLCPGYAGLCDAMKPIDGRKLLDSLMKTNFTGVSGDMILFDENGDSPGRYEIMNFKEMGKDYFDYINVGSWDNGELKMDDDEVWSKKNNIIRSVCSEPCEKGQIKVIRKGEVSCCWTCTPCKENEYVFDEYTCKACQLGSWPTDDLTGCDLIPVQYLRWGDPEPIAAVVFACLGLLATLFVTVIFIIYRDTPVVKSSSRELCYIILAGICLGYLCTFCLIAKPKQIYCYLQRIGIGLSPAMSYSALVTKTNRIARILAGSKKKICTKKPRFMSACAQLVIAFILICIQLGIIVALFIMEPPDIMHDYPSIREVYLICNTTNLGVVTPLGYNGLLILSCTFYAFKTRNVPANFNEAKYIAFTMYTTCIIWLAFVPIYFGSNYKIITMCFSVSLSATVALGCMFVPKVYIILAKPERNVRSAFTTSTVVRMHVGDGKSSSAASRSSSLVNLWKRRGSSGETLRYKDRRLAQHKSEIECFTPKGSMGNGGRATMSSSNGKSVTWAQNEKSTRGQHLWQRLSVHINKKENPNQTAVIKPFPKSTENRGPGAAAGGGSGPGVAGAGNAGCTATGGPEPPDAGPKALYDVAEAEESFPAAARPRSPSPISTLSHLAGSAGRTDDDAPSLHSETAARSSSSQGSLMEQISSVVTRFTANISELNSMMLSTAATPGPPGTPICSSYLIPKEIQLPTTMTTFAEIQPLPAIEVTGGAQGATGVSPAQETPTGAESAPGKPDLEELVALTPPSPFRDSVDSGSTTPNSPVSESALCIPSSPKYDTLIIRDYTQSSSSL

One may read the AC50 as the concentration giving half of the maximal activity seen. As to `CCCN1C[C@H](C)[C@@H](OC)CN(C)C(=O)c2cc(NC(=O)c3cccc(F)c3)ccc2OC[C@@H]1C`, the AC50 (in the test on HEK293; in [1]) was 19.8 µM (active) throughout.
As a reminder, the IC50 is the midpoint of a concentration-inhibition curve. Turning to `COC(=O)c1ccc(COc2ccc3c(c2)CCC3)o1`, in test [2], the IC50 was > 7 µM (active). The concentration at half-maximal activity (AC50) in the test on A-375 [3] and in the test with A-375 [4] was > 35 µM (active) in each case.
Take `Cc1ccc(OCCn2cnc3ccccc32)cc1`: the AC50 in test [5] is 38.9 µM (active).
`CCS(=O)(=O)N1c2ccccc2CC[C@H]1C(=O)Nc1cccc(Cl)c1`: in [6], the EC50 was found to be 1.74 µM.
`CN(C[C@H]1N[C@@H](CO)[C@@H]1c1ccc(-c2cccnc2)cc1)C(=O)c1ccccc1`: the AC50 is 2.89 µM (active) at Paired box protein Pax-8; > 32 µM (inactive) in test [7]; 7.42 µM (active) in test [8]; 23.4 µM (active) in test [9]; 13.8 µM (active) in test [10]; 7.22 µM (active) in test [11]. In addition, the AC50 in test [12] is 15.8 µM (active); in test [13] it was 5.83 µM (active); in test [14] it was 5.14 µM (active); in test [15] it was 11.3 µM (active); in [16], 14.5 µM (active); in test [17], 8.64 µM (active). The AC50 in [18] is 9.82 µM (active).
As to `COc1ccc(CSCC(=O)c2cc(C)n(-c3ccc(OC(F)F)cc3)c2C)cc1`, in test [19], the EC50 was 10 µM (active).
Turning to `Cc1cc(C(=O)CSc2nnc(Nc3ccccc3)s2)c(C)n1CC1CCCO1` (stereo not given), the EC50 in test [20] is on record as 20.4 µM (not active).
With `Clc1ccc(-c2nc3n(n2)Cc2ccccc2-3)cc1`, the IC50 in [21] is > 67.5 µM (inactive). Also, the EC50 (in test [22]; in test [23]; in the test “cells”) was > 67.5 µM (inactive) each time.
As a reminder, the CC50 is the concentration that lowers cell viability or growth by half. Take `COc1c(OC(C)=O)ccc(/C=C/c2ccc3ccccc3n2)c1[N+](=O)[O-]`: the CC50 in test [24] was 33.2 µM (active).
Regarding `CN1CCN(Cc2nc3ccc([N+](=O)[O-])cc3c(=O)n2-c2ccccc2F)CC1`, the IC50 in [25] is 0.65 µM (active); in test [26], < 0.72 µM (active); in test [27], 0.74 µM (active).
